Data taken from patent EP1401829B1, “NOVEL HETEROCYCLIC ANTIBACTERIAL COMPOUNDS” (Microbiotix, Inc., priority 2001, dated 2002).
In brackets after ≈: the same amount, converted by molar mass. Like-named read-outs stand apart in the source and are kept apart here. Marks after values point to notes of the source that are not given here.

Columns and labels:
[1] = target: T1, B. subtilis Pol IIIC (Bacillus subtilis, UniProt P13267); test: Polymerase IIIC (Pol IIIC) assay, determination of Ki values; type: biochemical; details: assay in absence of dGTP or dATP, Ki is the concentration that reduces control polymerase IIIC activity by 50 percent; for Ki: Ki (µM) Pol IIIC
T1 construct: made in house
T1 sequence (P13267 whole entry): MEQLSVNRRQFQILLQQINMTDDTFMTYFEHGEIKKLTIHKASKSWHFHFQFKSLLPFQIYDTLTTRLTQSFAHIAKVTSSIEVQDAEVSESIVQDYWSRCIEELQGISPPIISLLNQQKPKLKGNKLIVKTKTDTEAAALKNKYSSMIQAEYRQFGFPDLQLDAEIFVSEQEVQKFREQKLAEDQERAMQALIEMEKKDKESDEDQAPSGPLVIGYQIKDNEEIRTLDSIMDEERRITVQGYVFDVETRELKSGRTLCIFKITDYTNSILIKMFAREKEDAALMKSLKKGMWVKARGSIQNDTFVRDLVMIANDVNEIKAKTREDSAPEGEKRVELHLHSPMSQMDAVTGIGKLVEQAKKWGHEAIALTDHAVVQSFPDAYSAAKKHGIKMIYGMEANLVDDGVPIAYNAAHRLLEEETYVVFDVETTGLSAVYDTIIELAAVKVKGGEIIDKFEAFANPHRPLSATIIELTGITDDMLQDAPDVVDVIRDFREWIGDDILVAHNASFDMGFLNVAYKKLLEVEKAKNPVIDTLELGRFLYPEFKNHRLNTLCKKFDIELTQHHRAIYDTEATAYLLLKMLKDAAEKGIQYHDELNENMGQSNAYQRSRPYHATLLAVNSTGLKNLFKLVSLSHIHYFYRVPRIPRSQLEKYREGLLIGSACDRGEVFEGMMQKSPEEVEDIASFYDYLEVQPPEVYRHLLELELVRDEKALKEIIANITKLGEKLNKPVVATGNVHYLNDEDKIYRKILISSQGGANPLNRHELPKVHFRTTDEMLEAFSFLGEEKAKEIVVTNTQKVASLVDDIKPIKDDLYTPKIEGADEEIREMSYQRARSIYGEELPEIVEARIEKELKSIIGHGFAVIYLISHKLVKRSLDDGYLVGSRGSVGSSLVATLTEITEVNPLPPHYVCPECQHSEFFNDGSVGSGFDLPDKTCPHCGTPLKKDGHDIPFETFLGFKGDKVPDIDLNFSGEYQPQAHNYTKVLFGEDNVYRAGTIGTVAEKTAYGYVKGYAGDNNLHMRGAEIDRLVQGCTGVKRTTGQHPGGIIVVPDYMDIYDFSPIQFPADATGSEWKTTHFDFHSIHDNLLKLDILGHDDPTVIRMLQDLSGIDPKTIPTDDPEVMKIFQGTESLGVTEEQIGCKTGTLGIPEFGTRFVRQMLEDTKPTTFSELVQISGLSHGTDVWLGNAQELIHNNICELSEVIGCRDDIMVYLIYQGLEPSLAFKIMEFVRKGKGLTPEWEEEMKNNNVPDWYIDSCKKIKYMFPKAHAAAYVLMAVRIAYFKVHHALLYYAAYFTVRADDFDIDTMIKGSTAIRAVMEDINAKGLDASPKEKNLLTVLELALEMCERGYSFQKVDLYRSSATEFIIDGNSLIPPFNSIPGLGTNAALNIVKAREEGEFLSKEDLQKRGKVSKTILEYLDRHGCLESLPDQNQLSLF
Outline: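 Isolated B. subtilis Pol IIIC (0.025–0.06 units) run 10 min at 30°C in 30 mM Tris pH 7.5, 10 mM Mg acetate, 4 mM DTT, 20% glycerol. Substrates were 0.4 mg/ml activated calf thymus DNA, 25 µM dNTPs and 10 µM [3H]dTTP, with dGTP or dATP omitted per compound structure.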

[2] = tested on: B. subtilis; test: Minimal Inhibitory Concentration (MIC) determination, 96 well plates; type: cell-based, Bacillus subtilis; details: Bacillus subtilis; HBI medium, 16 to 18 hours at 37°C; read-out: MIC (µg/ml) B. subtilis
Outline: (§1)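 Broth growth in Heart-Brain Infusion medium, seeded at about 1x10^5 CFU/ml, 16 to 18 hours at 37°C. Growth read at OD 600 nm as percent of untreated control; five concentrations per drug, five data points each, MIC reported in µg/ml.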

[3] = tested on: S. aureus; test: as above; type: cell-based, Staphylococcus aureus; details: Staphylococcus aureus; HBI medium, 16 to 18 hours at 37°C; read-out: MIC (µg/ml) S. aureus
Outline: (§2)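 Cultures seeded at approximately 1x10^5 CFU/ml in Heart-Brain Infusion medium were exposed to five compound concentrations, five data points each, for 16 to 18 hours at 37°C. Growth at OD 600 nm was expressed as percent of control, and MIC values are given in µg/ml.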

[4] = tested on: S.aureus (Smith); test: as above; type: cell-based, Staphylococcus aureus; details: Staphylococcus aureus; HBI medium, 16 to 18 hours at 37°C; read-out: MIC (µg/ml) S.aureus (Smith)
Outline: as §1

[5] = tested on: E. fecalis; test: as above; type: cell-based, Enterococcus fecalis; details: Enterococcus; HBI medium, 16 to 18 hours at 37°C; read-out: MIC (µg/ml) E. fecalis
Outline: as §1

[6] = tested on: E. fecium; test: as above; type: cell-based, Enterococcus fecium; details: Enterococcus; HBI medium, 16 to 18 hours at 37°C; read-out: MIC (µg/ml) E. fecium
Outline: as §1

[7] = tested on: E. coli; test: as above; type: cell-based, Escherichia coli; details: Escherichia coli, read-out: MIC (µg/ml) E. coli
Outline: as §2

[8] = tested on: VRE 700802; test: In vivo efficacy of Compound 70 in mouse models; set-up: species or system Enterococcus faecalis; details: mice, 3x10^8 CFU/mouse + 5% Mucin; positive control, 100mg/kg, t=0
Procedure: Swiss Webster mice, ca. 20 g each, were infected with Staphylococcus aureus (Smith strain) by the intraperitoneal route. Test compounds (2, 4, 5, 6, 7, 8, 10, 12) were dissolved in 10% dimethylsulfoxide in peanut oil to a concentration of 2 mg/ml. Vancomycin was used as positive control drug (i.e., protection from lethal infection). Fifteen minutes after infection, test compounds, vancomycin, or vehicle alone were given intraperitoneally to groups of five mice each. Animals were monitored for three days, and the number of mice surviving was tabulated for each treatment.
Using the same basic procedure as described above, the in vivo efficacy of Compound 70 was also evaluated at various doses in mice infected with S. aureaus (Smith), MRSA 1094, Enterococcus faecalis, or vancomycin-resistant Enterococcus faecalis strain VRE 700802. […] Negative controls were mice infected that received no treatment. Mucin was employed as an adjuvant to facilitate bacterial infection in mice, where indicated.

[9] = HBI medium, 16 to 18 hours at 37°C

Structure (SMILES) | Ki [1] | MIC [2] | MIC [3] | MIC [4] | MIC [5] | MIC [6] | MIC [7, 9] | Ki (µM) Pol IIIC [1] | % Survival at 72 hours [8] | MIC [7]
Cc1ccc(Nc2cc(=O)n(CCCCN3CCN(c4c(F)cc5c(=O)c(C(=O)O)cn(C6CC6)c5c4F)C[C@@H]3C)c(=O)[nH]2)cc1C [Compound 99, (S)-3-{4-[1-(1-cyclopropyl-3-carboxy-4-oxo-6,8-difluoro-7-quinolyl)-3-methyl-4-piperazinyl]butyl}-6-(3,4-dimethylanilino)uracil] | 0.03 µM | 0.156 µg/mL (≈ 0.24 µM) | 0.313 µg/mL (≈ 0.482 µM) | 0.156 µg/mL (≈ 0.24 µM) | 0.625 µg/mL (≈ 0.963 µM) | 1.25 µg/mL (≈ 1.93 µM) | 0.625 µg/mL (≈ 0.963 µM) |  |  | 
CCc1cc(Nc2cc(=O)n(CCCCN3CCN(c4cc5c(cc4F)c(=O)c(C(=O)O)cn5C4CC4)C[C@@H]3C)c(=O)[nH]2)ccc1C [Compound 100, (S)-3-{4-[1-(1-cyclopropyl-3-carboxy-4-oxo-6-fluoro-7-quinolyl)-3-methyl-4-piperazinyl]butyl}-6-(3-ethyl-4-methylanilino)uracil] | 0.011 µM | 0.156 µg/mL (≈ 0.242 µM) | 0.937 µg/mL (≈ 1.45 µM) | 0.625 µg/mL (≈ 0.969 µM) | 0.475 µg/mL (≈ 0.737 µM) | 0.937 µg/mL (≈ 1.45 µM) | 50 µg/mL (≈ 77.5 µM) |  |  | 
Cc1ccc(Nc2cc(=O)n(CCCCN3CCN(c4c(F)cc5c(=O)c(C(=O)O)cn(C6CC6)c5c4F)CC3)c(=O)[nH]2)cc1C [Compound 101, 3-{4-[1-(1-cyclopropyl-3-carboxy-4-oxo-6,8-difluoro-7-quinolyl)-4-piperazinyl]butyl}-6-(3,4-dimethylanilino)uracil] | 0.024 µM | 0.235 µg/mL (≈ 0.37 µM) | 0.625 µg/mL (≈ 0.985 µM) | 0.313 µg/mL (≈ 0.493 µM) | 0.937 µg/mL (≈ 1.48 µM) | 1.25 µg/mL (≈ 1.97 µM) | 5 µg/mL (≈ 7.88 µM) |  |  | 
O=C(O)c1cn(C2CC2)c2cc(N3CCNCC3)c(F)cc2c1=O [cflxn, ciprofloxacin, reference compound] |  | 0.156 µg/mL (≈ 0.471 µM) | 0.156 µg/mL (≈ 0.471 µM) | 0.078 µg/mL (≈ 0.235 µM) |  |  | 0.078 µg/mL (≈ 0.235 µM) | inactive | ciprofloxacin (100mg/kg, t=0) 90% (9/10)** | 
CCn1cc(C(=O)O)c(=O)c2cc(F)c(N3CCNCC3)cc21 [nflxn, norfloxacin, reference compound] |  | 0.625 µg/mL (≈ 1.96 µM) | 0.625 µg/mL (≈ 1.96 µM) | 0.156 µg/mL (≈ 0.489 µM) | 2.5 µg/mL (≈ 7.83 µM) | 20 µg/mL (≈ 62.6 µM) |  | inactive |  | 0.078 µg/mL (≈ 0.244 µM)
